Results taken from US12600740B2, “Fluorinated N-acetyl glucosamine analogs and xylose derivatives” (UTI Limited Partnership, priority 2018, dated 2026).

System: oligodendrocyte precursor cells (OPCs)
Assay: Growth of OPCs on astrocyte-secreted extracellular matrix
Format: cell-based, mouse
Conditions: for mean process outgrowth of OPCs on astrocyte ECM: astrocytes treated 48 hours, then removed, OPCs plated on matrix; for Enhance OPC outgrowth: OPCs on inhibitory astrocyte matrix, significance class
Source text: The process of remyelination requires oligodendrocyte lineage cells to undergo process outgrowth prior to their expression of mature myelin proteins for repair. Thus, process outgrowth in culture by cells of the oligodendrocyte lineage has been used as one surrogate for myelinating potential in vivo [Keough, M. B.; Rogers, J. A.; Zhang, P.; Jensen, S. K.; Stephenson, E. L.; Chen, T.; Hurlbert, M. G.; Lau, L. W.; Rawji, K. S.; Plemel, J. R. et al. An inhibitor of chondroitin sulfate proteoglycan synthesis promotes central nervous system remyelination. Nat. Commun. 2016, 7, 11312], since an oligodendrocyte needs to elaborate multiple protrusions emanating in several directions to contact many axons, and where these processes then compact around axons to form myelin segments. The presence of CSPGs in culture impairs the process outgrowth of OPCs, and this has been linked to reduced remyelination capacity in vivo [Keough, M. B.; Rogers, J. A.; Zhang, P.; Jensen, S. K.; Stephenson, E. L.; Chen, T.; Hurlbert, M. G.; Lau, L. W.; Rawji, K. S.; Plemel, J. R. et al. An inhibitor of chondroitin sulfate proteoglycan synthesis promotes central nervous system remyelination. Nat. Commun. 2016, 7, 11312]. It was reported previously that astrocytes in culture produce a plate-bound matrix abundant in CSPGs, that is left behind once astrocytes are removed from the plate, and this CSPG-containing matrix inhibits the outgrowth of plated OPCs [Keough, M. B. et al. An inhibitor of chondroitin sulfate proteoglycan synthesis promotes central nervous system remyelination. Nature communications 7, 11312 (2016)] (FIG. 7a). Thus, astrocytes were treated with test compounds for 48 hours and they were then removed from the cell culture plate leaving only their secreted ECM behind (FIG. 7a). When OPCs were plated on the astrocyte matrix, the extent of their process outgrowth over […] of observation was inhibited (FIG. 7b). […] OPCs growing in the absence of astrocyte ECM can reach a mean outgrowth around 300 μm (FIG. 7b,c). […] These compounds were: Ac-4,4-diF-GlcNAc 16 (Ac-4,4-diF-GlcNAc), fluorosamine 3 and its O1-deacetylated analog 10 (Ac-4-F-GlcNAcOH), anomeric O-propanoate 7, anomeric O-butanoate 8 (Ac-4-F-GlcNAcOBu), and the 4-fluorinated GalNAc derivative 13 (Ac-4-F-GalNAc) (FIG. 7c).
In brief, cortices from postnatal days 1-3 mouse brains were dissociated with papain digestion and then plated as a mixed culture for 7 days in a 37° C. incubator at 8.5% CO2 whereupon OPCs and microglia tended to be loosely attached on top of a monolayer of astrocytes; the OPCs and microglia were then shaken off when placed on an orbital shaker at 220 r.p.m. at 37° C. and 5% CO2 overnight. The media containing microglia and OPCs were collected and added to a 100 mm tissue culture dish and left at 37° C. and 5% CO2 for 30 min, to allow preferential adhesion of microglia. The media were collected again, now containing OPCs, and used as the OPC-enriched isolates for experiments. For the remaining adhered cells, largely astrocytes, these were removed with 0.25% trypsin and after centrifugation and washing, these astrocytes were plated at a density of 1.0×10^5 cells in flat bottom 96-well plates coated with 10 μg/ml poly-L-lysine. Cells were grown for 7 days at 37° C. and 5% CO2 in MGM and daily media changes. Astrocytes were carefully removed with EDTA treatment (0.2 g EDTA (Na4) per liter PBS, 30 minutes at 37° C. and 5% CO2) and mechanical dislodgement with a micropipetter. The remaining ECM left behind was covered with PBS at 4° C. until OPCs were seeded. Enriched OPCs from mixed glial cultures were seeded at a density of 5-10×10^4 cells per well in OPC media and grown at 37° C. and 8.5% CO2 for 18-24 h and then were fixed with 4% ice-cold paraformaldehyde at 4° C. for 10 min, rinsed with PBS, and stored at 4° C. until immunocytochemistry. […]

SMILES | mean process outgrowth of OPCs on astrocyte ECM | Enhance OPC outgrowth
CC(=O)NC1C(OC(C)=O)OC(COC(C)=O)[C@H](F)[C@@H]1OC(C)=O (mixture of isomers) [Compound 13, 2-Acetamido-1,3,6-tri-O-acetyl-2,4-dideoxy-4-fluoro-α/β-D-galactopyranose] | effective at improving mean outgrowth of OPCs | 
CCC(=O)OC1OC(COC(C)=O)[C@@H](F)[C@H](OC(C)=O)C1NC(C)=O (stereo partly drawn) [Compound 7, 2-Acetamido-3,6-di-O-acetyl-2,4-dideoxy-4-fluoro-1-O-propanoyl-α/β-D-glucopyranose] | effective at improving mean outgrowth of OPCs | 
CC(=O)NC1C(OC(C)=O)OC(COC(C)=O)C(F)(F)[C@@H]1OC(C)=O (mixture of isomers) [Compound 16, 2-Acetamido-1,3,6-tri-O-acetyl-2,4-dideoxy-4,4-difluoro-α/β-D-xylo-hexopyranose] | effective at improving mean outgrowth of OPCs | 
CC(=O)NC1C(OC(C)=O)OC(COC(C)=O)[C@@H](F)C1OC(C)=O (stereo partly drawn) [Compound 3, reference compound] | effective at improving mean outgrowth of OPCs | ** (**p < 0.01)
CCCC(=O)OC1OC(COC(C)=O)[C@@H](F)[C@H](OC(C)=O)C1NC(C)=O (mixture of isomers) [Compound 8, 2-Acetamido-3,6-di-O-acetyl-1-O-butanoyl-2,4-dideoxy-4-fluoro-α/β-D-glucopyranose] | effective at improving mean outgrowth of OPCs | 
CCCC(=O)OC[C@H]1OC(O)[C@H](NC(C)=O)[C@@H](OC(=O)CCC)[C@@H]1F (stereo partly drawn) [Compound 12, 2-Acetamido-3,6-di-O-butanoyl-2,4-dideoxy-4-fluoro-α/β-3-D-glucopyranose] |  | n.s.
CC(=O)N[C@H]1[C@H](OC(C)=O)O[C@H](COC(C)=O)[C@@H](OC(C)=O)[C@@H]1OC(C)=O [Compound 1, reference compound] |  | n.s.
CC(=O)NC1C(O)OC(COC(C)=O)[C@@H](F)[C@@H]1OC(C)=O (mixture of isomers) [Compound 10] | effective at improving mean outgrowth of OPCs | 
